Data published in US20080280868A1, “Pyridine Derivatives and Their Use as Cb2 Receptor Modulators” (priority 2004, published 2008).
Counter-ions that a name gives are not always drawn. Like-named read-outs stand apart in the source and are kept apart here.

Biological target: T1, human cannabinoid CB2 receptor (Homo sapiens, UniProt P34972)
T1 construct: expressed in transfected cells; host or cells: Saccharomyces cerevisiae strain MMY23 (cassette integrated at the ura3 locus, GPD promoter)
Test: Cannabinoid CB2 receptor agonist activity in yeast cells (FDGlu fluorescence)
Type: cell-based
Details: for Emax: read-out: efficacy value (Emax) at the cloned human cannabinoid CB2 receptor
Procedure: The cannabinoid CB2 receptor agonist activity of the compounds of formula (I) was determined in accordance with the following experimental method.
Yeast (Saccharomyces cerevisiae) cells expressing the human cannabinoid CB2 receptor were generated by integration of an expression cassette into the ura3 chromosomal locus of yeast strain MMY23. This cassette consisted of DNA sequence encoding the human CB2 receptor flanked by the yeast GPD promoter to the 5′ end of CB2 and a yeast transcriptional terminator sequence to the 3′ end of CB2. MMY23 expresses a yeast/mammalian chimeric G-protein alpha subunit in which the C-terminal 5 amino acids of Gpal are replaced with the C-terminal 5 amino acids of human Gαi3 (as described in Brown et al. (2000), Yeast 16:11-22).
Agonists were prepared as 10 mM stocks in DMSO. […] Agonist solutions in DMSO (1% final assay volume) were transferred into black, clear bottom, microtitre plates from NUNC (96- or 384-well). Cells were suspended at a density of 0.2 OD600/ml in SC media lacking histidine, uracil, tryptophan, adenine and leucine and supplemented with 10 mM 3-aminotriazole, 0.1M sodium phosphate pH 7.0, and […] fluorescein di-β-D-glucopyranoside (FDGlu). […] After incubation at 30° C. for 24 hours, fluorescence resulting from degradation of FDGlu to fluorescein due to exoglucanase, an endogenous yeast enzyme produced during agonist-stimulated cell growth, was determined using a Spectrofluor microtitre plate reader (Tecan; excitation wavelength: 485 nm; emission wavelength: 535 nm). Fluorescence was plotted against compound concentration and iteratively curve fitted using a four parameter fit to generate a concentration effect value. Efficacy (Emax) was calculated from the equation
Equieffective molar ratio (EMR) values were calculated from the equation

[1] = Emax relative to HU210, yeast expressing human CB2
[2] = yeast (Saccharomyces cerevisiae) expressing human CB2, agonist, 30° C. for 24 hours, read-out: EC50 at the cloned human cannabinoid CB2 receptor

T1 sequence (P34972 whole entry): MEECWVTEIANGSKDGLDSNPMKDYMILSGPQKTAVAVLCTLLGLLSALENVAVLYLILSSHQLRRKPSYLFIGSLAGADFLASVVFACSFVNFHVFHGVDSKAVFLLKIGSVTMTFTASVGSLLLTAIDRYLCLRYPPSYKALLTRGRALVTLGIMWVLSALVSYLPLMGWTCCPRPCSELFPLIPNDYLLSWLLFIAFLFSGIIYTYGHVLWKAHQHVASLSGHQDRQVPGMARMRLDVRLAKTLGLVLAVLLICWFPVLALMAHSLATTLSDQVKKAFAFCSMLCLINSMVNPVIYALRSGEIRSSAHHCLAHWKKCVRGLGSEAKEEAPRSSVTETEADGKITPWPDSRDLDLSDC

SMILES | Emax [1] [%] | EC50 [2] [nM] | EC50 [nM] | Emax [%]
Clc1cccc(Nc2cc(C3CC3)c(CNC3CCC3)cn2)c1 [Example 1, (3-Chlorophenyl)-5-(cyclobutylaminomethyW cyclopropyl-pyridin-2-yl)-amine acetate] | > 50 | < 300 |  | 
Clc1cccc(Nc2cc(C3CC3)c(CNC3CC3)cn2)c1 [Example 2, (3-Chlorophenyl)-(4-cyclopropyl-5-cyclopropylaminomethyl-pyridin-2-yl)-amineacetate] | > 50 | < 300 |  | 
Clc1cccc(Nc2cc(C3CC3)c(CNCC3CC3)cn2)c1 [Example 3, (3-Chlorophenyl)-(4-cyclopropyl-5-[(cyclopropylmethyl-amino)-methyl]-pyridin-2-yl}-amine acetate] |  |  | < 300 | > 50
Clc1cccc(Nc2cc(C3CC3)c(CN3CCOCC3)cn2)c1 [Example 4, (3-Chlorophenyl)-(4-cyclopropyl-5-morpholin-4-ylmethyl-pyridin-2-yl)-aminedihydrochloride] |  |  | < 300 | > 50
CC(C)CNCc1cnc(Nc2cccc(Cl)c2)cc1C1CC1 [Example 5, (3-Chlorophenyl)-[4-cyclopropyl-5-(isobutylamino-methyl)-pyridin-2-yl]-amineacetate] |  |  | < 300 | > 50
Clc1cccc(Nc2cc(C3CC3)c(CNC3CCOCC3)cn2)c1 [Example 11, (3-Chlorophenyl)-{4-cyclopropyl-5-[(tetrahydro-pyran-4-ylamino)-methyl]-pyridin-2-yl}-amineacetate] |  | 300 to 1000 |  | > 50
Cc1cccc(Nc2cc(C(C)C)c(CNCC3CCC3)cn2)c1 [Example 12, {5-[(Cyclobutylmethyl-amino)methyl]-4-isopropyl-pyridin-2-yl}-m-tolyl-amine] |  |  | 300 to 1000 | > 50
Clc1cccc(Nc2cc(C3CC3)c(CNCC3CCC3)cn2)c1 [Example 13, (3-Chloro-phenyl)-{5-[(cyclobutylmethyl-amino)-methyl]-4-cyclopropyl-pyridin-2-yl}-amine] |  |  | < 300 | > 50
CC(C)c1cc(Nc2ccc(Cl)cc2Cl)ncc1CNCC1CCC1 [Example 16, {5-[(Cyclobutylmethyl-amino)-methyl]-4-isopropyl-pyridin-2-yl}-(2,4-dichloro-phenyl)-amine,compound with formic acid (1:1)] |  |  | < 300 | > 50
CC(C)c1cc(Nc2ccc(Cl)c(Cl)c2)ncc1CNCC1CCC1 [Example 17, {5-[(Cyclobutylmethyl-amino)-methyl]-4-isopropyl-pyridin-2-yl}-(3,4-dichloro-phenyl)-amine,compound with formic acid (1:1.2)] |  |  | < 300 | > 50
CC(C)c1cc(Nc2ccc(F)c(Cl)c2)ncc1CNCC1CCC1 [Example 18, (3-Chloro-4-fluoro-phenyl)-{5-[(cyclobutyhnethyl-amino)-methyl]-4-isopropyl-pyridin-2-yl}-amine,compound with formic acid (1:1.3)] | > 50 | < 300 |  | 
CC(C)c1cc(Nc2cc(Cl)ccc2Cl)ncc1CNCC1CCC1 [Example 20, {5-[(Cyclobutylmethyl-amino)-methyl]-4-isopropyl-pyridin-2-yl}-(2,5-dichloro-phenyl)-amine,compound with formic acid (1:1)] |  |  | < 300 | > 50
CC(C)c1cc(Nc2cc(F)cc(F)c2)ncc1CNCC1CCC1 [Example 21, {5-[(Cyclobutylmethyl-amino)-methyl]-4-isopropyl-pyridin-2-yl}-(3,5-difluoro-phenyl)-amine,compound with formic acid (1:1.3)] | > 50 | < 300 |  | 
CC(C)c1cc(Nc2cccc(Cl)c2)ncc1CNCC1CC1 [Example 22, (3-Chloro-phenyl)-{5-[(cyclopropylmethyl-amino)-methyl]-4-isopropyl-pyridin-2-yl}-amine, compound with formic acid(1:1.25)] |  |  | < 300 | > 50
CC(C)CNCc1cnc(Nc2ccc(Cl)cc2Cl)cc1C(C)C [Example 23, (2,4-Dichloro-phenyl)-[5-(isobutylamino-methyl)-4-isopropyl-pyridin-2-yl]-amine, compound withformic acid (1:1)] |  |  | < 300 | > 50
CC(C)c1cc(Nc2ccc(F)cc2Cl)ncc1CNCC1CCC1 [Example 24, (2-Chloro-4-fluoro-phenyl)-{5-[(cyclobutylmethyl-amino)-methyl]-4-isopropyl-pyridin-2-yl}-amine,compound with formic acid (1:1.75)] |  |  | 300 to 1000 | > 50
CC(C)c1cc(Nc2ccc(Cl)cc2F)ncc1CNCC1CCC1 [Example 25, (4-Chloro-2-fluoro-phenyl)-{5-[(cyclobutylmethyl-amino)-methyl]-4-isopropyl-pyridin-2-yl}-amine,compound with formic acid (1:1.67)] | > 50 | 300 to 1000 |  | 
CC(C)c1cc(Nc2ccc(OC(F)(F)F)cc2Br)ncc1CNCC1CCC1 [Example 26, (2-Bromo-4-trifluoromethoxy-phenyl)-{5-[(cyclobutylmethyl-amino)-methyl]-4-isopropyl-pyridin-2-yl}-amine, compound with formicacid (1:1)] |  | 300 to 1000 |  | > 50
Cc1cc(Cl)ccc1Nc1cc(C(C)C)c(CNCC2CCC2)cn1 [Example 27, (4-Chloro-2-methyl-phenyl)-{5-[(cyclobutylmethyl-amino)-methyl)-4-isopropyl-pyridin-2-yl}-amine,compound with formic acid (1:1.33)] |  |  | 300 to 1000 | > 50
Cc1c(Cl)cccc1Nc1cc(C2CC2)c(CNCC2CCC2)cn1 [Example 29, (3-Chloro-2-methyl-phenyl)-{5-[(cyclobutylmethyl-amino)-methyl]-4-cyclopropyl-pyridin-2-yl}-amine,compound with formic acid (1:1.57)] | > 50 | 300 to 1000 |  | 
CC(C)c1cc(Nc2cccc(C(F)(F)F)c2)ncc1CNCC1CC1 [Example 30, {5-[(Cyclopropylmethyl-amino)-methyl]-4-isopropyl-pyridin-2-yl}-(3-trifluoromethyl-phenyl)-amine,compound with formic acid (1:1)] |  |  | 300 to 1000 | > 50
CC(C)c1cc(Nc2cc(F)cc(F)c2)ncc1CNCC1CC1 [Example 31, {5-[(Cyclopropylmethyl-amino)-methyl]-4-isopropyl-pyridin-2-yl}-(3,5-difluoro-phenyl)-amine,compound with formic acid (1:1)] |  | 300 to 1000 |  | > 50
Cc1ccc(Nc2cc(C(C)C)c(CNCC3CC3)cn2)cc1Cl [Example 33, (3-Chloro-4-methyl-phenyl)-{5-[(cyclopropylmethyl-amino)-methyl]-4-isopropyl-pyridin-2-yl}-amine, compound with formic acid(1:1)] |  |  | 300 to 1000 | > 50
CC(C)c1cc(Nc2ccc(F)c(Cl)c2)ncc1CNCC1CC1 [Example 34, (3-Chloro-4-fluoro-phenyl)-{5-[(cyclopropylmethyl-amino)-methyl]-4-isopropyl-pyridin-2-yl}-amine, compound with formic acid(1:1)] |  | 300 to 1000 |  | > 50
CC(C)c1cc(Nc2ccc(F)c(F)c2)ncc1CNCC1CC1 [Example 37, {5-[(Cyclopropylmethyl-amino)-methyl]-4-isopropyl-pyridin-2-yl}-(3,4-difluoro-phenyl)-amine,compound with formic acid (1:1.15)] |  |  | 300 to 1000 | > 50
Fc1ccc(Nc2cc(C3CC3)c(CNCC3CCCC3)cn2)cc1Cl [Example 44, (3-Chloro-4-fluoro-phenyl)-{5-[(cyclopentylmethyl-amino)-methyl]-4-cyclopropyl-pyridin-2-yl}-amine, compound with formicacid (1:1.4)] | > 50 | < 300 |  | 
CC(C)CNCc1cnc(Nc2cccc(C(F)(F)F)c2F)cc1C(C)C [Example 46, (2-Fluoro-3-trifluoromethyl-phenyl)-5-[(isobutylamino-methyl)-4-isopropyl-pyridin-2-yl]-amine,compound with formic acid (1:1.13)] | > 50 | < 300 |  | 
CC(C)CNCc1cnc(Nc2ccc(Cl)c(Cl)c2)cc1C(C)C [Example 47, (3,4-Dichloro-phenyl)-[5-(isobutylamino-methyl)-4-isopropyl-pyridin-2-yl]-amine, compound withformic acid (1:1)] |  |  | < 300 | > 50
CC(C)CNCc1cnc(Nc2cccc(Br)c2)cc1C(C)C [Example 48, (3-Bromo-phenyl)-[5-(isobutylamino-methyl)-4-isopropyl-pyridin-2-yl]-amine, compound withformic acid (1:33)] | > 50 | < 300 |  | 
